# In patent US20090325964A1, “Piperazine Metabotropic Glutamate Receptor 5 (MGLUR5) Negative Allosteric Modulators For Anxiety/Depression” (Wyeth, priority 2008, published 2009):
# Target: T1, rat mGluR5 receptor (Rattus norvegicus, UniProt P31424)
# T1 construct: expressed in transfected cells; host or cells: HEK-293
# Test: [3H]-MPEP displacement binding assay, HEK-293 cell membranes expressing rat mGluR5
# Settings: @ 10 μM compound; Biological Activity, Table 2A
# Outline: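 Membranes from HEK-293 cells expressing rat mGluR5 (12-25 μg protein), incubated 60 min at room temperature with 4 nM [3H]-MPEP in 50 mM Tris pH 7.5, then filtered. Nonspecific binding defined with 10 μM MPEP.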
# T1 sequence (P31424 21-1203): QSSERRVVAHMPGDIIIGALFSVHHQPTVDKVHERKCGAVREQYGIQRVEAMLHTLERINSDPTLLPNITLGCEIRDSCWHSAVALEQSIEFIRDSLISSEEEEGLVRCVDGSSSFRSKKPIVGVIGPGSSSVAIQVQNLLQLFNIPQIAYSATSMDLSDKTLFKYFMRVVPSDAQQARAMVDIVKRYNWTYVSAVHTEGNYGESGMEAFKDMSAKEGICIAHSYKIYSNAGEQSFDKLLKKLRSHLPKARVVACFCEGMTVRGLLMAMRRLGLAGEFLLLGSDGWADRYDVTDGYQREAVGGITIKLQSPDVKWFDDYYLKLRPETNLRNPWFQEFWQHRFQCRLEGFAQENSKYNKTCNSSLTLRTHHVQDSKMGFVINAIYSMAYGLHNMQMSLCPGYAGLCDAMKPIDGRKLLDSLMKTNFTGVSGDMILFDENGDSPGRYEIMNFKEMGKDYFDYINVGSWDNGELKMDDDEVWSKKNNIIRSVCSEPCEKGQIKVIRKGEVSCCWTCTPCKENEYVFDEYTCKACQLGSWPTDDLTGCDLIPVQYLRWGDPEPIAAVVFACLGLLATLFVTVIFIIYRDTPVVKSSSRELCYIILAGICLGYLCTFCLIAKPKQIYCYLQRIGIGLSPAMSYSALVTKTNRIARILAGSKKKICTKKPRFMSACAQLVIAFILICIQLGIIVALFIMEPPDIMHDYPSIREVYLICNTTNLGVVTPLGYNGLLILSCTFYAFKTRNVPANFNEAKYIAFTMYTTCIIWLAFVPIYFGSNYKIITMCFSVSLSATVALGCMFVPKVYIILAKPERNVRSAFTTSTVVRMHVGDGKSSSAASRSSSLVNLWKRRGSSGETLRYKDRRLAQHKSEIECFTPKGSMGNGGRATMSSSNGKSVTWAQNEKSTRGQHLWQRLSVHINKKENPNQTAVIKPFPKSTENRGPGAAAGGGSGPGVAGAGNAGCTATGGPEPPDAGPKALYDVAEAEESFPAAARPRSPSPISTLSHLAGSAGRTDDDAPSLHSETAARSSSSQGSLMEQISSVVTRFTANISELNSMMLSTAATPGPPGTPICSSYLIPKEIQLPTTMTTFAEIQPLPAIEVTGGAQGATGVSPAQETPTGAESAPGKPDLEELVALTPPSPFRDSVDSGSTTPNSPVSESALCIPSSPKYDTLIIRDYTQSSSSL
row,SMILES,PCT INHIB (%) @ 10 μM
1,"O=C(c1cccc(C#Cc2ccccn2)c1)N1CCN(c2ncccc2C(F)(F)F)CC1 [Compound 146, 1-[3-(pyridin-2-ylethynyl)benzoyl]-4-[3-(trifluoromethyl)pyridin-2-yl]piperzine]",48%

# Same assay, conditions: @ 10 μM compound; Biological Activity, Table 2A; read-out: PCT INHIB (%) @ 10 μM
row,SMILES,inhibition at 10 µM
1,"N#Cc1cccnc1N1CCN(C(=O)c2cccc(C#Cc3ccccc3)c2)CC1 [Compound 141, 2-{4-[3-(phenylethynyl)benzoyl]piperazin-1-yl}nicotinonitrile]",78%
2,"O=C(c1cccc(C#Cc2ccccc2)c1)N1CCN(c2ccncc2)CC1 [Compound 142, 1-[3-(phenylethynyl)benzoyl]-4-pyridin-4-ylpiperazine]",53%
3,"Cc1cccc(N2CCN(C(=O)c3cncc(C#Cc4ccccc4)c3)CC2)n1 [Compound 143, 1-(6-methylpyridin-2-yl)-4-{(5-(phenylethynyl)pyridin-3-yl]carbonyl}piperazine]",49%
4,"O=C(c1ccnc(C#Cc2ccccc2)c1)N1CCN(c2ccncc2)CC1 [Compound 144, 1-[2-(phenylethynyl)isonicotinoyl]-4-pyridin-4-ylpiperazine]",10%
5,"COc1ccc(C(=O)N2CCN(c3ccncc3)CC2)cc1C#Cc1ccccc1 [Compound 145, 1-[4-methoxy-3-(phenylethynyl)benzoyl]-4-pyridin-4-ylpiperazine]",91%
6,"Cc1cccc(N2CCN(C(=O)c3cccc(C#Cc4ccccn4)c3)CC2)n1 [Compound 147, 1-(6-methylpyridin-2-yl)-4-[3-(pyridin-2-ylethynyl)benzoyl]piperazine]",80%
7,N#Cc1cccnc1N1CCN(C(=O)c2cccc(C#Cc3ccccn3)c2)CC1 [Compound 148],74%
8,"O=C(c1cccc(C#Cc2ccccn2)c1)N1CCN(c2ncc(C(F)(F)F)cc2Cl)CC1 [Compound 149, 1-[3-chloro-5-(trifluoromethyl)pyridin-2-yl]-4-[3-(pyridin-2-ylethynyl)benzoyl]piperazine]",72%

# Same assay, conditions: Biological Activity, Table 2A; read-out: Median Ki
row,SMILES,Ki
1,"N#Cc1cccnc1N1CCN(C(=O)c2cccc(C#Cc3ccccc3)c2)CC1 [Compound 141, 2-{4-[3-(phenylethynyl)benzoyl]piperazin-1-yl}nicotinonitrile]",1090 nM
2,"COc1ccc(C(=O)N2CCN(c3ccncc3)CC2)cc1C#Cc1ccccc1 [Compound 145, 1-[4-methoxy-3-(phenylethynyl)benzoyl]-4-pyridin-4-ylpiperazine]",1300 nM
3,"Cc1cccc(N2CCN(C(=O)c3cccc(C#Cc4ccccn4)c3)CC2)n1 [Compound 147, 1-(6-methylpyridin-2-yl)-4-[3-(pyridin-2-ylethynyl)benzoyl]piperazine]",3020 nM
4,N#Cc1cccnc1N1CCN(C(=O)c2cccc(C#Cc3ccccn3)c2)CC1 [Compound 148],1630 nM
5,"O=C(c1cccc(C#Cc2ccccn2)c1)N1CCN(c2ncc(C(F)(F)F)cc2Cl)CC1 [Compound 149, 1-[3-chloro-5-(trifluoromethyl)pyridin-2-yl]-4-[3-(pyridin-2-ylethynyl)benzoyl]piperazine]",2760 nM

# Same assay, conditions: [3H]-MPEP 4 nM; Table 4A; read-out: Median Ki
row,SMILES,Ki
1,"Cc1cccc(OCc2cccc(C(=O)N3CCN(c4ccccn4)CC3)c2)c1 [Compound 164, 1-{3-[(3-methylphenoxy)methyl]benzoyl}-4-pyridin-2-ylpiperazine]",1750 nM
2,"N#Cc1cccc(OCc2cccc(C(=O)N3CCN(c4ccccn4)CC3)c2)c1 [Compound 165, 3-({3-[(4-pyridin-2-ylpiperazin-1-yl)carbonyl]benzyl}oxy)benzonitrile]",2970 nM
3,"CCc1cccc(OCc2cccc(C(=O)N3CCN(c4ccccn4)CC3)c2)c1 [Compound 166, 1-{3-[(3-ethylphenoxy)methyl]benzoyl}-4-pyridin-2-ylpiperazine]",> 10000 nM
4,"COc1cccc(OCc2cccc(C(=O)N3CCN(c4ccccn4)CC3)c2)c1 [Compound 167, 1-{3-[(3-methoxyphenoxy)methyl]benzoyl}-4-pyridin-2-ylpiperazine]",> 10000 nM
5,"O=C(c1cccc(COc2cccc(Cl)c2)c1)N1CCN(c2ccccn2)CC1 [Compound 168, 1-{3-[(3-chlorophenoxy)methyl]benzoyl}-4-pyridin-2-ylpiperazine]",813 nM
6,"O=C(c1cccc(COc2cccc(Br)c2)c1)N1CCN(c2ccccn2)CC1 [Compound 169, 1-{3-[(3-bromophenoxy)methyl]benzoyl}-4-pyridin-2-ylpiperazine]",862 nM
7,"O=C(c1cccc(COc2ccccn2)c1)N1CCN(c2ccccn2)CC1 [Compound 170, 1-pyridin-2-yl-4-{3-[(pyridin-2-yloxy)methyl]benzoyl}piperazine]",> 10000 nM
8,"O=C(c1cccc(COc2ccccc2)c1)N1CCN(c2ccccn2)CC1 [Compound 171, 1-[3-(phenoxymethyl)benzoyl]-4-pyridin-2-ylpiperazine]",> 10000 nM

# Same assay, conditions: [3H]-MPEP 4 nM; Table 7A; read-out: Median Ki
row,SMILES,Ki
1,"COc1ccc(C(=O)N2CCN(c3ccccn3)CC2)cc1/C=C/c1ccccc1 [Compound 182, 1-{4-methoxy-3-[(E)-2-phenylvinyl]benzoyl}-4-pyridin-2-ylpiperazine]",827 nM

# Same assay, conditions: single point, @ 10 μM compound; Table 3A; read-out: PCT INHIB (%) @ 10 μM
row,SMILES,inhibition at 10 µM
1,"Cc1cccc(COc2cccc(C(=O)N3CCN(c4ccccn4)CC3)c2)c1 [Compound 150, 1-{3-[(3-methylbenzyl)oxy]benzoyl}-4-pyridin-2-ylpiperazine]",0%
2,"COc1ccc(C(=O)N2CCN(c3ccccn3)CC2)cc1OCc1cccc(C)c1 [Compound 151, 1-{4-methoxy-3-[(3-methylbenzyl)oxy]benzoyl}-4-pyridin-2-ylpiperazine]",0%
3,"O=C(c1cccc(OCc2ccccc2)c1)N1CCN(c2ccccn2)CC1 [Compound 152, 1-[3-(benzyloxy)benzoyl]-4-pyridin-2-ylpiperazine]",0%
4,"O=C(c1cccc(OCc2cccc(Br)c2)c1)N1CCN(c2ccccn2)CC1 [Compound 153, 1-{3-[(3-bromobenzyl)oxy]benzoyl}-4-pyridin-2-ylpiperazine]",23%
5,"O=C(c1cccc(OCc2cccc(Cl)c2)c1)N1CCN(c2ccccn2)CC1 [Compound 154, 1-{3-[(3-chlorobenzyl)oxy]benzoyl}-4-pyridin-2-ylpiperazine]",36%
6,"COc1cccc(COc2cccc(C(=O)N3CCN(c4ccccn4)CC3)c2)c1 [Compound 155, 1-{3-[(3-methoxybenzyl)oxy]benzoyl}-4-pyridin-2-ylpiperazine]",0%
7,"N#Cc1cccc(COc2cccc(C(=O)N3CCN(c4ccccn4)CC3)c2)c1 [Compound 156, 3-({3-[(4-pyridin-2-ylpiperazin-1-yl)carbonyl]phenoxy}methyl)benzonitrile]",0%
8,"O=C(c1cccc(OCc2cccc(F)c2)c1)N1CCN(c2ccccn2)CC1 [Compound 157, 1-{3-[(3-fluorobenzyl)oxy]benzoyl}-4-pyridin-2-ylpiperazine]",18%
9,"COc1ccc(C(=O)N2CCN(c3ccccn3)CC2)cc1OCc1ccccc1 [Compound 158, 1-[3-(benzyloxy)-4-methoxybenzoyl]-4-pyridin-2-ylpiperazine]",0%
10,"COc1ccc(C(=O)N2CCN(c3ccccn3)CC2)cc1OCc1cccc(Br)c1 [Compound 159, 1-{3-[(3-bromobenzyl)oxy]-4-methoxybenzoyl}-4-pyridin-2-ylpiperazine]",26%
11,"COc1ccc(C(=O)N2CCN(c3ccccn3)CC2)cc1OCc1cccc(Cl)c1 [Compound 160, 1-{3-[(3-chlorobenzyl)oxy]-4-methoxybenzoyl}-4-pyridin-2-ylpiperazine]",11%
12,"COc1cccc(COc2cc(C(=O)N3CCN(c4ccccn4)CC3)ccc2OC)c1 [Compound 161, 1-{4-methoxy-3-[(3-methoxybenzyl)oxy]benzoyl}-4-pyridin-2-ylpiperazine]",0%
13,"COc1ccc(C(=O)N2CCN(c3ccccn3)CC2)cc1OCc1cccc(C#N)c1 [Compound 162, 3-({2-methoxy-5-[(4-pyridin-2-ylpiperazin-1-yl)carbonyl]phenoxy}methyl)benzonitrile]",0%
14,"COc1ccc(C(=O)N2CCN(c3ccccn3)CC2)cc1OCc1cccc(F)c1 [Compound 163, 1-{3-[(3-fluorobenzyl)oxy]-4-methoxybenzoyl}-4-pyridin-2-ylpiperazine]",11%

# Same assay, conditions: single point, @ 10 μM compound; Table 5; read-out: PCT INHIB (%) @ 10 μM
row,SMILES,inhibition at 10 µM
1,"O=S(=O)(c1cccc(C#Cc2cccc(O)c2)c1)N1CCN(c2ccccn2)CC1 [Compound 172, 3-({3-[(4-pyridin-2-ylpiperazin-1-yl)sulfonyl]phenyl}ethynyl)phenol]",0%
2,"O=S(=O)(c1cccc(C#CC2=CCCCC2)c1)N1CCN(c2ccccn2)CC1 [Compound 173, 1-{[3-(cyclohex-1-en-1-ylethynyl)phenyl]sulfonyl}-4-pyridin-2-ylpiperazine]",0%
3,"O=S(=O)(c1cccc(C#CCc2ccccc2)c1)N1CCN(c2ccccn2)CC1 [Compound 174, 1-{[3-(3-phenylprop-1-yn-1-yl)phenyl]sulfonyl}-4-pyridin-2-ylpiperazine]",0%
4,"COc1cccc(C#Cc2cccc(S(=O)(=O)N3CCN(c4ccccn4)CC3)c2)c1 [Compound 175, 1-({3-[(3-methoxyphenyl)ethynyl]phenyl}sulfonyl)-4-pyridin-2-ylpiperazine]",0%
5,"O=S(=O)(c1cccc(C#Cc2ccccc2)c1)N1CCN(c2ccccn2)CC1 [Compound 176, 1-{[3-(phenylethynyl)phenyl]sulfonyl}-4-pyridin-2-ylpiperazine]",0%

# Same assay, conditions: single point, @ 10 μM compound; Table 6; read-out: PCT INHIB (%) @ 10 μM
row,SMILES,inhibition at 10 µM
1,"Oc1cccc(C#Cc2cccc(CN3CCN(c4ccccn4)CC3)c2)c1 [Compound 177, 3-({3-[(4-pyridin-2-ylpiperazin-1-yl)methyl]phenyl}ethynyl)phenol]",13%
2,"C(#Cc1cccc(CN2CCN(c3ccccn3)CC2)c1)C1=CCCCC1 [Compound 178, 1-[3-(cyclohex-1-en-1-ylethynyl)benzyl]-4-pyridin-2-ylpiperazine]",0%
3,"C(#Cc1cccc(CN2CCN(c3ccccn3)CC2)c1)Cc1ccccc1 [Compound 179, 1-[3-(3-phenylprop-1-yn-1-yl)benzyl]-4-pyridin-2-ylpiperazine]",0%
4,"Nc1cccc(C#Cc2cccc(CN3CCN(c4ccccn4)CC3)c2)c1 [Compound 180, 3-({3-[(4-pyridin-2-ylpiperazin-1-yl)methyl]phenyl}ethynyl)aniline]",0%
5,"COc1cccc(C#Cc2cccc(CN3CCN(c4ccccn4)CC3)c2)c1 [Compound 181, 1-{3-[(3-methoxyphenyl)ethynyl]benzyl}-4-pyridin-2-ylpiperazine]",0%

# Same assay, conditions: single point, @ 10 μM compound; Table 7A; read-out: PCT INHIB (%) @ 10 μM
row,SMILES,inhibition at 10 µM
1,"COc1ccc(C(=O)N2CCN(c3ccccn3)CC2)cc1/C=C/c1ccccc1 [Compound 182, 1-{4-methoxy-3-[(E)-2-phenylvinyl]benzoyl}-4-pyridin-2-ylpiperazine]",86%
